Laboratory results from US11414454B2, “Compositions, methods, and systems for affinity-based protein identification and purification” (Auctus Biologies, Inc., priority 2017, dated 2022).
Residues, ends and D or L forms follow the SMILES beside them. No end group written: not given here.

Key:
RPtag (large) [1] = test: Fluorescence anisotropy Kd of rhodamine labeled RPtag (small) peptides for RPtag (large); format: binding, Thermoanaerobacter tengcongensis; conditions: for effect of alanine mutation on binding affinity to RPtag(large): alanine scanning versus native
Experimental: (§1) 50 nM of RP-Tag Small (see Sequence 3, below) with an N-terminal Rhodamine B label was incubated with increasing concentrations of either RP-Tag Large (see Sequence 2) or Bovine Serum Albumin (BSA) in 50 mM Tris pH 8.0, 150 mM NaCl, 10 mM 2-mercaptoethanol, and 0.005% Tween 20 for 5 min in black 96-well plates at room temperature.
(§2) Anisotropy was then measured, and a Kd calculated by fitting the data to the equation f=y0+(ymax−y0)*(Ptot+x+Kd−sqrt((Ptot+x+Kd)^2−4*Ptot*x))/(2*Ptot), where y0 is the baseline anisotropy, ymax is the maximum anisotropy, Ptot is the fixed concentration of labeled peptide used, x is the variable concentration of protein used, and Kd is the measured Kd.
(§3) The indicated concentrations of RPtag (large) and an anti-His tag antibody (4E3D10H2/E3 purchased from ThermoFisher Scientific) were incubated with 1 nM rhodamine labeled native RPtag (small) peptide and 6×His peptide (Rhodamine-GHHHHHH), respectively, and fluorescence anisotropy measured. BSA incubated with native rhodamine labeled RPtag(small) is included as a control for non-specific binding. Kd's were calculated according to the equation f=y0+(ymax−y0)*(Ptot+x+Kd−sqrt((Ptot+x+Kd)^2−4*Ptot*x))/(2*Ptot), where y0 is the baseline anisotropy, ymax is the maximum anisotropy, Ptot is the fixed concentration of labeled peptide used, x is the variable concentration of protein used, and Kd is the measured Kd. We measured a Kd of 0.2±0.1 nM for RPtag(large) binding RPtag(small), and a Kd of 6±1 nM for the antibody/6×His tag pair.
Regarding the studies shown in FIG. 14, increasing concentrations of unlabeled RPtag large with the indicated mutations (native, f137d, and f137e) were incubated for 1 h with 1 nM rhodamine labeled RPtag small peptide and the fluorescence anisotropy was measured. Resultant curves were fit with the equation f=y0+(ymax−y0)*(Ptot+x+Kd−sqrt((Ptot+x+Kd)^2−4*Ptot*x))/(2*Ptot), where y0 is the baseline anisotropy, ymax is the maximum anisotropy, Ptot is the fixed concentration of labeled peptide used, x is the variable concentration of protein used, and Kd is the measured Kd. Data are presented here as Ka=1/Kd. Log transformed Ka's were then compared by one-way ANOVA with Holm-Sidak post hoc correction. ***p<0.001, **p<0.01, *p<0.05. data are mean±SEM (n=3-4). Buffer was 50 mM Tris pH 8.0, 0.005% tween20. Proteins were expressed and purified by single step NiNTA chromatography as before. Peptides were synthesized solid-state and handled as previous.

RPtag (large) [2] = test: Association/dissociation kinetics of RPtag (small) peptides with RPtag (large) by fluorescence anisotropy; format: binding, Thermoanaerobacter tengcongensis; conditions: for koff: LS dissociation, unlabeled competitor peptide; for kf: S to S* forward rate constant; for kr: S* to S reverse rate constant, calculated from Keq and kf; for kon (M^−1 min^−1 ) (×10^7): S*-LS transition, calculated from measured koff and Kd
Experimental: Panel a depicts representative association rate kinetics traces varying native RPtag small. Rhodamine labeled RPtag small at the indicated concentration was incubated with unlabeled RPtag large and the association measured by fluorescence anisotropy. L-S complex concentration was calculated by the equation (r−rmin)/(rmax−rmin)*[S] where r is the measured anisotropy, rmin is the anisotropy in the absence of any RPtag large, rmax is the anisotropy measured in the presence of at saturating RPtag large, and [S] is the total concentration of RPtag small used in the experiment. […] Dashed cyan lines are simulations of the mechanism shown in f using the rate constants detailed herein. The concentrations in the simulations were multiplied by a correction factor of 0.925, which is well within the 90% purity specification of the purchased peptide.
LS complex was performed by incubating 1000 nM RPtag large with the indicated concentrations of rhodamine labeled RPtag small. At the start of the experiment, 0.1 mM unlabeled native RPtag small was added and fluorescence anisotropy monitored. Data processing was done as in panel a, except the red fits were to the single exponential decay equation y=y0+A*exp(−b*t). As expected, the initial dissociation rates were linear with respect to the LS complex.
Fitting to a line yields a rate constant (koff)=0.0091 min^−1 (FIG. 9 panel e). In good agreement, when the kinetics are fit with a first order rate law, a rate constant of 0.012±0.002 min^−1 (n=15) was observed. […] Panel e is a graph of the initial rates of the traces represented in d. Slope of the fit line is 0.0091 min^−1. Data are mean±SE (n=3).
The library of mutant RPtag(small) peptides, described above, was next analyzed to measure off rates (koff). The on rate was also calculated from measured koff and Kd (S*-LS transition), except instead of using unlabeled native peptide as the competitor, we used unlabeled Nd2,P5A,E18A (the tightest binding RPtag(small) peptide identified). […] However, there were notable exceptions. […] This indicates, without wishing to be limited, that P5 may constrain the structure of the peptide. The increased flexibility imparted to the peptide by the P5A mutation may decrease the energy barrier required for binding/unbinding.

[3] = target: Bovine Serum Albumin (BSA) (Bos taurus, UniProt P02769); format: binding; conditions: fluorescence anisotropy, rhodamine labeled peptide; up to 10 μM BSA
Experimental: as §1, §2, §3

immobilized RP-Tag Large = test: Column elution trials of rhodamine labeled RP-Tag Small bound to immobilized RP-Tag Large; format: binding, Thermoanaerobacter tengcongensis
Experimental: One embodiment of the disclosed RP-Tag system was tested by creating a column with one component bound to a solid, agarose-based matrix. In these experiments, a SulfoLink™ Immobilization kit (ThermoFisher scientific) was used to affix RP-Tag Large to a solid support, according to the manufacturer's instructions. For these experiments, an N-terminal linker was added to RP-Large that included a Cys residue. One of skill in the art is able to select various techniques and chemistries to aid in affixing either RP-Tag protein to a solid support matrix.
The amount of protein linked to the column was determined using a BCA assay with Bovine Serum Albumin (BSA) as a standard. […] The linked resin was poured into an included column and the column capped with a frit included in the kit (see photos in FIG. 2). The column was equilibrated with several volumes of 50 mM Tris pH 8.5, 150 mM NaCl, 5 mM EDTA.
25 mL of 1 μM Rhodamine-6B labeled RP-Tag Small, in 50 mM Tris pH 8.5, 150 mM NaCl, 5 mM EDTA, was flowed over the column of immobilized RP-Tag Large protein. RP-Tag Small bound the column and formed a visibly bright red band (rhodamine B) at the top of the resin (see FIG. 2).
Briefly, after binding, the RP-Tag Small red band was not observed to appreciably diffuse and/or elute after washing the column (and band) with various solutions. For these tests, 10 mL (5 column volumes) of various buffers were added to the column. The tested buffers ranged from about pH 1.5-13.7 and about 1 M sodium hydroxide.
Table 1. Summary of elution trial data. The test system used was a column equilibrated with 50 mM Tris pH 8.5, 150 mM NaCl, 5 mM EDTA, and applied 25 mL 1 μM Rhodamine-6B labeled RP-small peptide in the same buffer. In cases where D-ribose was used, the indicated concentration was also included in the equilibration and loading buffer.

[4] = N-terminal rhodamine tagged peptide, unlabeled RPtag (large), 50 mM Tris pH 8.0, 0.005% Tween 20, mean ± SE

Bovine Serum Albumin (BSA), sequence (P02769 25-607): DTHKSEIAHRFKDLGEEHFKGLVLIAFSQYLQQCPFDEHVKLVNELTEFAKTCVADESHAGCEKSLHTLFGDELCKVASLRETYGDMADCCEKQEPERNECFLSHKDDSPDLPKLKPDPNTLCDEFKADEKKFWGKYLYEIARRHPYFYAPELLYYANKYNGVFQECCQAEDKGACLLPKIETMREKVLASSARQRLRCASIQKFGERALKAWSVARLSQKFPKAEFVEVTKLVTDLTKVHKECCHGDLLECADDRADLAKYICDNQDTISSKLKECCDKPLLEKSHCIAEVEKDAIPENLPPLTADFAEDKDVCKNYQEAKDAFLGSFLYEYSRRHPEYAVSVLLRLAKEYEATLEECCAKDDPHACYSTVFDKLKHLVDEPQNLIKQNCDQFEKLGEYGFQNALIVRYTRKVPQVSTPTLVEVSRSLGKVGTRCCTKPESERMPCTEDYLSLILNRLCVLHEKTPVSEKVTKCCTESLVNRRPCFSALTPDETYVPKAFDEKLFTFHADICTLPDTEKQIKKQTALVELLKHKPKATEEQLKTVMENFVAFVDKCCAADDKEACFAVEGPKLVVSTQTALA

Row | Compound | Kd (RPtag (large) [1]; [4]) | koff (RPtag (large) [2]) | kon (M^−1 min^−1 ) (×10^7) (RPtag (large) [2]) | also measured
1 | CC(C)[C@H](NC(=O)[C@H](CC(N)=O)NC(=O)[C@@H](N)CCC(=O)O)C(=O)N[C@@H](CCC(N)=O)C(=O)O [Nd17, ENVQ] (H-ENVQ-OH; N-terminus and C-terminus assumed) | > 100000 nM |  |  | 
2 | CC[C@H](C)[C@H](NC(=O)[C@H](CC(C)C)NC(=O)[C@H](CCCCN)NC(=O)[C@H](CC(C)C)NC(=O)[C@H](CCC(=O)O)NC(=O)[C@H](C)NC(=O)[C@@H]1CCCN1C(=O)[C@@H](NC(=O)[C@H](Cc1ccccc1)NC(=O)[C@H](CC(N)=O)NC(=O)[C@@H]1CCCN1C(=O)[C@@H](NC(=O)[C@H](CCCCN)NC(=O)[C@H](CCC(=O)O)NC(=O)[C@H](C)N)[C@@H](C)CC)[C@@H](C)CC)C(=O)N[C@H](C(=O)N[C@@H](CCCCN)C(=O)N[C@@H](CCC(=O)O)C(=O)N[C@@H](CC(N)=O)C(=O)N[C@H](C(=O)N[C@@H](CCC(N)=O)C(=O)O)C(C)C)[C@@H](C)O [g1a] | 0.29 ± 0.03 nM | 7.83e-05 ± 5e-06 s⁻¹ | 1.6 ± 0.1 ×10^7 M^−1 min^−1 | kf (RPtag (large) [2]): 0.086 ± 0.004 min⁻¹; kr (RPtag (large) [2]): 0.037 ± 0.001 min⁻¹
3 | AIANFIPAELKLITKANVQ [Nd2, k3a, e18a] | 0.88 ± 0.01 nM | 0.000533 ± 1.7e-05 s⁻¹ | 2.6 ± 0.1 ×10^7 M^−1 min^−1 | 
4 | FIPAELKLITK [Nd6, Cd4, FIPAELKLITK] | 9.9 ± 1.1 nM | >0.033 s⁻¹ |  | 
5 | GAKIPNFIPAELKLITKENVQ [e2a] |  | 8.83e-05 ± 1.2e-05 s⁻¹ | 5.1 ± 0.7 ×10^7 M^−1 min^−1 | effect of alanine mutation on binding affinity to RPtag(large) (RPtag (large) [1]): significantly increased binding affinity
6 | GEKIP [Cd16] | > 100000 nM |  |  | 
7 | GEKIPN [Cd15] | > 100000 nM |  |  | 
8 | GEKIPNF [Cd14] | > 100000 nM |  |  | 
9 | GEKIPNFI [Cd13] | > 100000 nM |  |  | 
10 | GEKIPNFIAPELALITKENVQ [k13a] | 1.1 ± 0.1 nM | 0.0003 ± 1.7e-05 s⁻¹ | 1.7 ± 0.1 ×10^7 M^−1 min^−1 | 
11 | GEKIPNFIPA [Cd11] | > 100000 nM |  |  | 
12 | GEKIPNFIPAE [Cd10] | > 100000 nM |  |  | 
13 | GEKIPNFIPAEL [Cd9] | > 100000 nM |  |  | 
14 | GEKIPNFIPAELK [Cd8] | > 100000 nM |  |  | 
15 | GEKIPNFIPAELKLITKANVQ [e18a] |  | 0.000145 ± 6.7e-06 s⁻¹ | 16 ± 0.8 ×10^7 M^−1 min^−1 | effect of alanine mutation on binding affinity to RPtag(large) (RPtag (large) [1]): significantly increased binding affinity
16 | GEKIPNFIPAELKLITKENV [Cd1] | 0.55 ± 0.04 nM | 0.000102 ± 1e-05 s⁻¹ | 1.1 ± 0.1 ×10^7 M^−1 min^−1 | kf (RPtag (large) [2]): 0.10 ± 0.01 min⁻¹; kr (RPtag (large) [2]): 0.042 ± 0.007 min⁻¹
17 | GEKIPNFIPAELKLITKENVQ [RP-Tag Small] |  |  |  | binding to BSA [3]: no binding; Kd (RPtag (large) [1]; 50 nM N-terminal Rhodamine B RP-Tag Small, 50 mM Tris pH 8.0, 150 mM NaCl, 10 mM 2-mercaptoethanol, 0.005% Tween 20): 8 nM; Result of elution trial (bound rhodamine band) (immobilized RP-Tag Large; 0.1M Tris pH 7.5 + 100 μM unlabeled RP tag peptide): Partial band elution, slight; Result of elution trial (bound rhodamine band) (immobilized RP-Tag Large; 0.1M Tris pH 7.5 + 6M guanidine hydrochloride): Complete band elution; Result of elution trial (bound rhodamine band) (immobilized RP-Tag Large; 0.1M Tris pH 7.5 + 6M guanidine hydrochloride + 10 mM D-ribose): partial band elution,; Result of elution trial (bound rhodamine band) (immobilized RP-Tag Large; 0.1M Tris pH 7.5 + 6M guanidine hydrochloride + 100 mM D-ribose): no band elution, significant; Result of elution trial (bound rhodamine band) (immobilized RP-Tag Large; 0.1M Tris pH 7.5 + 6M guanidine hydrochloride + 1M D-ribose): No band elution, minor; Result of elution trial (bound rhodamine band) (immobilized RP-Tag Large; 5 column volumes 0.05M sodium acetate pH 4.6): No band diffusion/elution; Result of elution trial (bound rhodamine band) (immobilized RP-Tag Large; 5 column volumes 0.1M Tris pH 7.5): No band diffusion/elution; Result of elution trial (bound rhodamine band) (immobilized RP-Tag Large; 5 column volumes 0.1M Tris pH 8.0): No band diffusion/elution; Result of elution trial (bound rhodamine band) (immobilized RP-Tag Large; 5 column volumes 0.1M Tris pH 8.5): No band diffusion/elution; Result of elution trial (bound rhodamine band) (immobilized RP-Tag Large; 5 column volumes 0.1M glycine pH 1.5): Complete band elution; Result of elution trial (bound rhodamine band) (immobilized RP-Tag Large; 5 column volumes 0.1M glycine pH 2.5): No band diffusion/elution; Result of elution trial (bound rhodamine band) (immobilized RP-Tag Large; 5 column volumes 0.1M glycine pH 3.5): No band diffusion/elution; Result of elution trial (bound rhodamine band) (immobilized RP-Tag Large; 5 column volumes 0.1M sodium phosphate pH 12.0): No band diffusion/elution; Result of elution trial (bound rhodamine band) (immobilized RP-Tag Large; 5 column volumes 0.1M sodium phosphate pH 13.0): No band diffusion/elution; Result of elution trial (bound rhodamine band) (immobilized RP-Tag Large; 5 column volumes 0.1M sodium phosphate pH 13.7): No band diffusion/elution; Result of elution trial (bound rhodamine band) (immobilized RP-Tag Large; 5 column volumes 1M sodium hydroxide): No band diffusion/elution; stability of bound band on column (immobilized RP-Tag Large; room temperature): > 1 week
18 | GEKIPNFIPAELKLITKENVQ [n19a, RPtag(small) with N19 changed to alanine] | 0.26 ± 0.02 nM | 0.000617 ± 5e-05 s⁻¹ | 14 ± 1 ×10^7 M^−1 min^−1 | kf (RPtag (large) [2]): 0.089 ± 0.003 min⁻¹; kr (RPtag (large) [2]): 0.057 ± 0.008 min⁻¹
19 | GEKIPNFIPAELKLITKENVQ [q21a, RPtag(small) with Q21 changed to alanine] |  | 5.67e-05 ± 5e-06 s⁻¹ |  | kf (RPtag (large) [2]): 0.087 ± 0.005 min⁻¹; effect of alanine mutation on binding affinity to RPtag(large) (RPtag (large) [1]): significantly increased binding affinity
20 | GEKIPNFIPAELKLITKENVQ [v20a, RPtag(small) with V20 changed to alanine] | 0.18 ± 0.03 nM | 0.0002 ± 1.7e-05 s⁻¹ | 6.8 ± 0.5 ×10^7 M^−1 min^−1 | kf (RPtag (large) [2]): 0.073 ± 0.003 min⁻¹
21 | ITKENVQ [Nd14] | > 100000 nM |  |  | 
22 | KENVQ [Nd16] | > 100000 nM |  |  | 
23 | TKENVQ [Nd15] | > 100000 nM |  |  | 
